Test results published in PubChem BioAssay (NCI).
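Exposure lasted 48 hours, with cells grown in 96-well plates and compounds tested at five concentrations. TGI: concentration producing complete growth inhibition.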

Legend:
Assay in all cases: inhibition of tumour cell growth, NCI panel, 48 h
[1] = test system: 786-0 renal
[2] = test system: A498 renal
[3] = test system: A549 NSCLC
[4] = test system: ACHN renal
[5] = test system: BT-549 breast
[6] = test system: CAKI-1 renal
[7] = test system: CCRF-CEM leukemia
[8] = test system: COLO 205 colon
[9] = test system: DU-145 prostate
[10] = test system: EKVX NSCLC
[11] = test system: HCT-116 colon
[12] = test system: HCT-15 colon
[13] = test system: HL-60(TB) leukemia
[14] = test system: HOP-62 NSCLC
[15] = test system: HOP-92 NSCLC
[16] = test system: HS 578T breast
[17] = test system: HT29 colon
[18] = test system: IGROV1 ovarian
[19] = test system: K-562 leukemia
[20] = test system: KM12 colon
[21] = test system: LOX IMVI melanoma
[22] = test system: M14 melanoma
[23] = test system: MALME-3M melanoma
[24] = test system: MCF7 breast
[25] = test system: MDA-MB-231 breast
[26] = test system: MDA-MB-435
[27] = test system: MDA-N
[28] = test system: MOLT-4 leukemia
[29] = test system: NCI-H226 lung
[30] = test system: NCI-H23 lung
[31] = test system: NCI-H460 lung
[32] = test system: NCI-H522 lung
[33] = test system: NCI/ADR-RES ovarian
[34] = test system: OVCAR-3 ovarian
[35] = test system: OVCAR-4 ovarian
[36] = test system: OVCAR-5 ovarian
[37] = test system: OVCAR-8 ovarian
[38] = test system: PC-3 prostate
[39] = test system: RPMI-8226 leukemia
[40] = test system: RXF 393 renal
[41] = test system: SF-268 CNS
[42] = test system: SF-295 CNS
[43] = test system: SF-539 CNS
[44] = test system: SK-MEL-2 melanoma
[45] = test system: SK-MEL-28 melanoma
[46] = test system: SK-MEL-5 melanoma
[47] = test system: SK-OV-3 ovarian
[48] = test system: SN12C renal
[49] = test system: SNB-19 CNS
[50] = test system: SNB-75 CNS
[51] = test system: SR leukemia
[52] = test system: SW-620 colon
[53] = test system: T-47D breast
[54] = test system: TK-10 renal
[55] = test system: U251 CNS
[56] = test system: UACC-257 melanoma
[57] = test system: UACC-62 melanoma
[58] = test system: HCC-2998 colon
[59] = test system: UO-31 renal

Structure (SMILES): COc1ccc2c(c1)N(CCC1CCCCN1C)c1ccccc1S2 (stereo not given)
- TGI [1]: 29.5 µM
- TGI [2]: 23.8 µM
- TGI [3]: 27.8 µM
- TGI [4]: 28.1 µM
- TGI [5]: 30.4 µM
- TGI [6]: 21.5 µM
- TGI [7]: 28.9 µM
- TGI [8]: 30.9 µM
- TGI [9]: 26.2 µM
- TGI [10]: 36.5 µM
- TGI [11]: 27.2 µM
- TGI [12]: 27.4 µM
- TGI [13]: 24.8 µM
- TGI [14]: 31.2 µM
- TGI [15]: 22.6 µM
- TGI [16]: 26.5 µM
- TGI [17]: 18.9 µM
- TGI [18]: 26.5 µM
- TGI [19]: 18.2 µM
- TGI [20]: 23.6 µM
- TGI [21]: 25.9 µM
- TGI [22]: 10.9 µM
- TGI [23]: 33.7 µM
- TGI [24]: 24.5 µM
- TGI [25]: 23.6 µM
- TGI [26]: 20.6 µM
- TGI [27]: 25.7 µM
- TGI [28]: 17.2 µM
- TGI [29]: 47.8 µM
- TGI [30]: 35.2 µM
- TGI [31]: 21.5 µM
- TGI [32]: 28 µM
- TGI [33]: 25.4 µM
- TGI [34]: 31.4 µM
- TGI [35]: 24 µM
- TGI [36]: 31.2 µM
- TGI [37]: 30.9 µM
- TGI [38]: 22.7 µM
- TGI [39]: 29.5 µM
- TGI [40]: 21.8 µM
- TGI [41]: 26.6 µM
- TGI [42]: 31.2 µM
- TGI [43]: 74.4 µM
- TGI [44]: 29.1 µM
- TGI [45]: 14.2 µM
- TGI [46]: 24.8 µM
- TGI [47]: 31 µM
- TGI [48]: 29.4 µM
- TGI [49]: 28.9 µM
- TGI [50]: 24.6 µM
- TGI [51]: 20.9 µM
- TGI [52]: 35.5 µM
- TGI [53]: 26.3 µM
- TGI [54]: 28.1 µM
- TGI [55]: 23.8 µM
- TGI [56]: 17.3 µM
- TGI [57]: 25.2 µM

Structure (SMILES): O=C1/C(=c2\c3ccccc3n3c(=O)c4ccccc4nc23)Nc2ccccc21
- TGI [1]: > 100 µM
- TGI [2]: > 100 µM
- TGI [3]: > 100 µM
- TGI [4]: > 100 µM
- TGI [5]: > 100 µM
- TGI [6]: > 100 µM
- TGI [7]: > 100 µM
- TGI [8]: > 100 µM
- TGI [9]: > 100 µM
- TGI [10]: > 100 µM
- TGI [58]: > 100 µM
- TGI [11]: > 100 µM
- TGI [12]: > 100 µM
- TGI [14]: > 100 µM
- TGI [15]: > 100 µM
- TGI [16]: > 85.7 µM
- TGI [17]: > 100 µM
- TGI [18]: > 100 µM
- TGI [19]: > 100 µM
- TGI [20]: > 100 µM
- TGI [21]: > 100 µM
- TGI [22]: > 100 µM
- TGI [23]: > 100 µM
- TGI [24]: > 100 µM
- TGI [25]: > 100 µM
- TGI [26]: 36.8 µM
- TGI [27]: 33.6 µM
- TGI [28]: > 31.6 µM
- TGI [29]: > 100 µM
- TGI [30]: > 100 µM
- TGI [31]: > 100 µM
- TGI [32]: > 100 µM
- TGI [33]: > 100 µM
- TGI [34]: > 100 µM
- TGI [35]: > 100 µM
- TGI [36]: > 100 µM
- TGI [37]: > 100 µM
- TGI [38]: > 100 µM
- TGI [39]: > 100 µM
- TGI [40]: > 100 µM
- TGI [41]: > 100 µM
- TGI [42]: > 100 µM
- TGI [43]: > 100 µM
- TGI [44]: > 100 µM
- TGI [45]: > 100 µM
- TGI [46]: > 100 µM
- TGI [47]: > 100 µM
- TGI [48]: > 100 µM
- TGI [49]: > 100 µM
- TGI [50]: > 76.1 µM
- TGI [51]: > 100 µM
- TGI [52]: > 100 µM
- TGI [53]: > 100 µM
- TGI [54]: > 100 µM
- TGI [55]: > 100 µM
- TGI [56]: > 100 µM
- TGI [57]: > 100 µM
- TGI [59]: > 100 µM
